According to patent US8247372B2 (University of Southampton, priority 2006, dated 2012):

What was measured:
[1] = system: MCF7 breast, A2780 ovarian and PC3 and LNCAP prostate cancer cells; assay: CyQuant cell proliferation assay (Activity Assay 2); format: cell-based; conditions: Homo sapiens; cell line not given; read-out: Cell growth inhibition IC50
Protocol: Typically in this embodiment, said assay is performed using the CyQuant™ assay system (Moelcular Probes, Inc. USA).

[2] = system: HDAC (Hela Nuclear Extract); assay: In vitro HDAC fluorescent activity assay (Activity Assay 1); conditions: read-out: Inhibition of HDAC activity IC50, compounds reduced with DTT prior to analysis
Protocol: In vitro HDAC assays were performed using a HDAC fluorescent activity assay kit (Biomol, UK) according to the manufacturer's instructions. Compounds were reduced prior to analysis; 1 mM compound was reduced with 30 mM DTT in DMSO overnight at room temperature, protected from light. Reactions were then set up in a 96-well plate. […] Serial dilutions were set up for each compound. Reactions containing Hela extract only and assay buffer only were also set up. 25 μl diluted Fluor de LYS™ substrate (100-fold in assay buffer) was added to each reaction, which were then incubated at 37° C. for 1 hour. The reaction was stopped by addition of 50 μl Fluor de LYS™ Developer (20-fold dilution in assay buffer, plus TSA diluted 100-fold). […] Inhibition of in vitro HDAC activity was determined for mean values of duplicate samples as percentages relative to HeLa extract only reactions. IC50 values were calculated using GraphPad Prism software.

[3] = system: TNFα secretion from PBMCs; assay: TNF-α immunoassay in LPS-stimulated PBMCs (Activity Assay 3); conditions: normalized to 10 pg LPS alone (=100.00)
Protocol: TNF-α immunoassays were carried out using the Quantikine® Human TNF-α assay kit (R&D systems, Abingdon UK) according to the manufacturer's instructions. […] Compounds were added 1 hour later in volumes of 100 μl at 6× final concentration. Five hours later, lipopol ysaccharide (LSP, Sigma, Poole, UK) was added in a volume of 10 μl at 60× final concentration plates were mixed and left overnight at 37° C. 5% CO2. Plates were centrifuged and cell supernatant was transferred to a new plate. The Quantikine® assay reagents and standards were prepared according to the manufacturer instructions. The Quantikine® assay plate was prepared by adding 50 μl of assay dilutent RD1F into each well. This was followed by 200 μl of standard or 100 μl of calibrator dilutent plus 100 μl cell supernatant; this was incubated for 2 hours at room temperature (RT). The plate was washed using wash buffer 4 times. After the final wash the plate was tapped on clean paper towel to remove all residual buffer. 200 μl of TNF-α conjugate was added to each well and incubated for 1 hour at RT. The plate was then washed as before. The required amount of substrate solution was prepared by adding equal volumes of colour reagents A and B, protecting from light, 200 μl of this mix was added to each well and incubated for 20 mins at RT, protected from light. 50 μl of stop solution was added to each well in the same order as the substrate solution and the plate was read on a Biorad 680 96 well plate reader (Bio-Rad, Hemel Hempstead, UK) at 450 nm with λ correction at 570 nm. TNF-α levels were determined for mean values of duplicate samples using absorbance in nm, calibration zero values were subtracted from all results to correct for the addition of calibrator diluent in the assay.

Row | SMILES | IC50 [1] [nM] | IC50 [2] [nM] | other results
1 | C[C@H]1NC(=O)C[C@H]2/C=C/CCSSC[C@@H](NC1=O)C(=O)N[C@H](Cc1ccccc1)[C@@H](O)CC(=O)O2 [Compound 7D, (E)-(1S,5S,6R,9S,20R)-6-Benzyl-5-hydroxy-20-methyl-2-oxa-11,12-dithia-7,19,22-triaza-bicyclo[7.7.6]docos-15-ene-3,8,18,21-tetraone] | 55 | 18 | –
2 | O=C1C[C@H]2/C=C/CCSSC[C@@H](NC(=O)[C@@H](Cc3ccccc3)N1)C(=O)N[C@H](Cc1ccccc1)[C@@H](O)CC(=O)O2 [Compound 7E, (E)-(1S,5S,6R,9S,20R)-6,20-dibenzyl-5-hydroxy-2-oxa-11,12-dithia-7,19,22-triaza-bicyclo[7.7.6]docos-15-ene-3,8,18,21-tetraone] | 3.2 | 30 | –
3 | CC(C)C[C@H]1NC(=O)C[C@H]2/C=C/CCSSC[C@@H](NC1=O)C(=O)N[C@H](C(C)C)C(O)CC(=O)O2 (stereo in doubt) [Compound 7C, (E)-(1S,5R,6R,9S,20R)-5-Hydroxy-20-isobutyl-6-isopropyl-2-oxa-11,12-dithia-7,19,22-triaza-bicyclo[7.7.6]docos-15-ene-3,8,18,21-tetraone] | 0.23 | 11 | –
4 | CC(C)[C@H]1NC(=O)[C@H]2CSSCC/C=C/[C@H](CC(=O)N[C@H](Cc3cn(C(=O)OC(C)(C)C)c4ccccc34)C(=O)N2)OC(=O)C[C@@H]1O [Compound 7B, 3-((E)-(1S,5S,6R,9 S,20R)-5-Hydroxy-6-isopropyl-3,8,18,21-tetraoxo-2-oxa-11,12-dithia-7,19,22-triaza-bicyclo[7.7.6]docos-15-en-20-ylmethyl)-indole-1-carboxylic acid tert-butyl ester] | 0.65 | 436 | –
5 | CC(C)[C@H]1NC(=O)[C@H]2CSSCC/C=C/[C@H](CC(=O)N[C@H](Cc3ccccc3)C(=O)N2)OC(=O)C[C@@H]1O [Compound 7A] | 0.07 | 3.3 | TNFα Secretion (Normalized*) ([3]; Cells + 10 pg LPS + 0.025 nM compound): 63.90; TNFα Secretion (Normalized*) ([3]; Cells + 10 pg LPS + 0.05 nM compound): 58.12; TNFα Secretion (Normalized*) ([3]; Cells + 10 pg LPS + 0.1 nM compound): 45.45; TNFα Secretion (Normalized*) ([3]; Cells + 10 pg LPS + 0.2 nM compound): 31.11; TNFα Secretion (Normalized*) ([3]; Cells + 10 pg LPS + 0.4 nM compound): 18.66; TNFα Secretion (Normalized*) ([3]; Cells + 0.025 nM compound, no LPS): −0.26; TNFα Secretion (Normalized*) ([3]; Cells + 0.05 nM compound, no LPS): −0.06; TNFα Secretion (Normalized*) ([3]; Cells + 0.1 nM compound, no LPS): −0.08; TNFα Secretion (Normalized*) ([3]; Cells + 0.2 nM compound, no LPS): −0.03; TNFα Secretion (Normalized*) ([3]; Cells + 0.4 nM compound, no LPS): 0.13
